Laboratory results taken from patent US20130245081A1, “Compositions and Methods for Treating Amyotrophic Lateral Sclerosis” (priority 2009, published 2013).

Assays:
clinical [1] = conditions: for AUC(0-t) / AUC(0-inf) / Cmax / Tmax / Vd/F / half-life / CL renal: both, human, oral; for AUC(0-t) / AUC(0-inf) / Cmax / Tmax / Vd/F / half-life: plasma; for AUC(0-t): AUC0-t; for AUC(0-inf): AUCinf; for Vd/F: Vz/F; for CL renal: urine and plasma, CLr
Excerpt: A total of 54 subjects (30 subjects in Study CL001 and 24 subjects in Study CL002) were enrolled. Healthy, non-smoking, male and female subjects 30 to 60 years of age, inclusive, with normal or clinically acceptable physical examination and electrocardiogram (ECG) findings, systolic (90 to 140 mmHg) and diastolic (50 to 90 mmHg) blood pressure, and resting heart rate (50 to 100 bpm) who were willing to provide signed, written informed consent were eligible for enrollment. Female volunteers had to be of non-childbearing potential with negative pregnancy test results at screening and clinic check-in. Subjects with any history of neurodegenerative illnesses were excluded. The use of over-the-counter medications within 7 days prior to enrollment or prescription medications within 12 weeks prior to enrollment was prohibited.
In the first study, subjects were enrolled in 3 successive double-blind, placebo-controlled panels of 8 subjects (n=6 active, n=2 placebo per panel).
Matching placebo capsules contained equivalent weights of microcrystalline cellulose. Capsules were administered orally with water. […] Subjects in the fasted cohorts were required to fast overnight for a minimum of 10 hours before dose administration. Subjects in the food cohort were required to fast overnight for a minimum of 10 hours before dose administration, with exception of the high fat/high calorie meal that was administered 30 minutes prior to drug administration. […] All available safety data were reviewed under blinded conditions to monitor for serious safety or tolerability events prior to proceeding with dose escalations.
Blood samples were collected into a 10 mL dipotassium ethylenediaminetetraacetic acid (K2-EDTA) Vacutainer® via an indwelling peripheral intravenous cannula or by direct venipuncture. Within 15 minutes of collection, the samples were centrifuged at 3000 rpm for 10 minutes at 4° C. After centrifugation, the plasma was divided into 2 aliquots of at least 1.5 mL each, placed into polypropylene containers, frozen, and stored at −20° C. until they were shipped for analysis.
Urine collected in each interval was well mixed, the pH was recorded, the total volume (or the weight and specific gravity) was recorded, and 2 aliquots of 20 mL each were collected into polypropylene containers and stored at −20° C. until they were shipped for analysis. All plasma and urine sample were shipped frozen on dry ice in 2 separate shipments per group (1 set of aliquots per shipment) to Eurofins AvTech Laboratories Inc. (Kalamazoo, Mich.) for bioanalytical analysis.
Plasma and urine concentrations were measured using validated liquid chromatography/mass spectrometry/mass spectrometry (LC/MS/MS) methods. […] The analytical procedure for analysis of plasma samples used a 100 μL aliquot of K2EDTA human plasma. The plasma sample was spiked with 20 μL of working internal standard solution and 20 μL of type 1 water for subject samples and QCs and 20 μL of the appropriate intermediate standard solution for standards. One hundred microliters ([…]) of 50% ammonium hydroxide solution was added to the sample followed by vortex mixing. One milliliter (1 mL) of tertbutyl methyl ether was then added and the sample was vortexed to extract the analyte and internal standard into the organic layer, followed by separation using flash freezing. The organic layer was decanted, evaporated to dryness, and the sample was reconstituted with 0.5 mL of reconstitution solution (0.1% ammonium hydroxide in 50:50 methanol; type 1 water (v/v/v)). A 10 μL aliquot of this reconstituted sample was injected into an LC/MS/MS system for analysis. […] The analytical procedure for analysis of urine samples was essentially similar to the plasma procedure.

clinical [2] = conditions: human, in vivo
Procedure: Pharmacokinetic analyses were based on data from 20 subjects in the 25 mg Q12H (n=8), 75 mg Q12H (n=8), and 150 mg Q12H (n=4) groups.

SMILES: CCCN[C@@H]1CCc2nc(N)sc2C1 [dexpramipexole, (6R)-2-amino-4,5,6,7-tetrahydro-6-(propylamino)benzothiazole]
- eliminated in urine as unchanged parent drug (clinical [1]; both Phase 1 studies): 84-90 % of dose
- AUC(0-t) (clinical [1]; 50 mg, single 50 mg, fasted): 989 ± 295 ng·h/mL
- AUC(0-inf) (clinical [1]; 50 mg, single 50 mg, fasted): 1250 ± 347 ng·h/mL
- Cmax (clinical [1]; 50 mg, single 50 mg, fasted): 125 ± 22 ng/mL
- Tmax (clinical [1]; 50 mg, Tmax (median), single 50 mg, fasted): 2.04 h
- Vd/F (clinical [1]; 50 mg, single 50 mg, fasted): 294 ± 46.2 L
- AUC(0-t) (clinical [1]; 150 mg, single 150 mg, fasted): 3360 ± 780 ng·h/mL
- AUC(0-t) (clinical [1]; 150 mg, single 150 mg, fed): 3080 ± 934 ng·h/mL
- AUC(0-inf) (clinical [1]; 150 mg, single 150 mg, fasted): 3780 ± 1010 ng·h/mL
- AUC(0-inf) (clinical [1]; 150 mg, single 150 mg, fed): 3380 ± 957 ng·h/mL
- Cmax (clinical [1]; 150 mg, single 150 mg, fasted): 360 ± 60.4 ng/mL
- Cmax (clinical [1]; 150 mg, single 150 mg, fed): 315 ± 61.6 ng/mL
- Tmax (clinical [1]; 150 mg, Tmax (median), single 150 mg, fasted): 2.04 h
- Tmax (clinical [1]; 150 mg, Tmax (median), single 150 mg, fed): 2.58 h
- Vd/F (clinical [1]; 150 mg, single 150 mg, fasted): 311 ± 68.4 L
- Vd/F (clinical [1]; 150 mg, single 150 mg, fed): 308 ± 55.9 L
- half-life (clinical [1]; 150 mg, t1/2, single 150 mg, fed): 6.33 ± 1.49 h
- AUC(0-t) (clinical [1]; 300 mg, single 300 mg, fasted): 8340 ± 3200 ng·h/mL
- AUC(0-inf) (clinical [1]; 300 mg, single 300 mg, fasted): 8620 ± 3260 ng·h/mL
- Cmax (clinical [1]; 300 mg, single 300 mg, fasted): 781 ± 158 ng/mL
- Tmax (clinical [1]; 300 mg, Tmax (median), single 300 mg, fasted): 1.98 h
- Vd/F (clinical [1]; 300 mg, single 300 mg, fasted): 258 ± 73.5 L
- half-life (clinical [1]; 300 mg, elimination t1/2, single 50, 150, 300 mg, fasted): 6.4 to 6.96 h
- Tmax (clinical [1]; Tmax, range over both Phase 1 studies, single and multiple doses): 1.75 to 2.58 h
- half-life (clinical [1]; t1/2, range over both Phase 1 studies, fasted conditions): 6.4 to 8.05 h
- CL renal (clinical [1]; 50 mg, single 50 mg, fasted): 628 ± 149 mL/min
- CL renal (clinical [1]; 150 mg, single 150 mg, fasted): 385 mL/min
- CL renal (clinical [1]; 150 mg, single 150 mg, fed): 559 ± 140 mL/min
- CL renal (clinical [1]; 300 mg, single 300 mg, fasted): 441 ± 159 mL/min
- time of maximum concentrations after dosing (clinical [1]; oral administration): 2 h
- CL/F (clinical [1]; single 50 mg, fasted): 527 ± 135 mL/min
- Fe (clinical [1]; single 50 mg, fasted): 94.7 ± 13.9 % dose
- Ue (clinical [1]; single 50 mg, fasted): 35.3 ± 5.19 mg
- λz (clinical [1]; single 50 mg, fasted): 0.1064 ± 0.0171 h⁻¹
- CL/F (clinical [1]; single 150 mg, fasted): 524 ± 146 mL/min
- Fe (clinical [1]; single 150 mg, fasted): 66.9 ± 44.8 % dose
- Ue (clinical [1]; single 150 mg, fasted): 74.8 ± 50.17 mg
- λz (clinical [1]; single 150 mg, fasted): 0.1001 ± 0.0087 h⁻¹
- CL/F (clinical [1]; single 150 mg, fed): 581 ± 127 mL/min
- Fe (clinical [1]; single 150 mg, fed): 86.6 ± 4.21 % dose
- Ue (clinical [1]; single 150 mg, fed): 96.9 ± 4.71 mg
- λz (clinical [1]; single 150 mg, fed): 0.1144 ± 0.0259 h⁻¹
- CL/F (clinical [1]; single 300 mg, fasted): 492 ± 194 mL/min
- Fe (clinical [1]; single 300 mg, fasted): 88.3 ± 12.5 % dose
- Ue (clinical [1]; single 300 mg, fasted): 198 ± 28.0 mg
- λz (clinical [1]; single 300 mg, fasted): 0.1151 ± 0.0309 h⁻¹
- dose recovered as unchanged parent drug in the urine (clinical [1]; single doses): Approximately 90%
- dose linearity of pharmacokinetics (clinical [2]): linear
- Tmax (clinical [2]; 25 mg): 1.77 h
- Tmax (clinical [2]; 75 mg): 1.82 h
- Tmax (clinical [2]; 150 mg): 1.7 h
- half-life (clinical [2]; 150 mg): 6.63 to 8.73 h
